The EC50 is the concentration needed to bring the measured effect to its halfway point. A high value points to a less potent agent.

For this test, the target named is FXR (Homo sapiens (Human), UniProt Q96RI1). The experiment in a line: FXR EC50 (FXR agonist potency reported with each Example). It is filed as cell-based.
Sequence of FXR (Q96RI1 262-486): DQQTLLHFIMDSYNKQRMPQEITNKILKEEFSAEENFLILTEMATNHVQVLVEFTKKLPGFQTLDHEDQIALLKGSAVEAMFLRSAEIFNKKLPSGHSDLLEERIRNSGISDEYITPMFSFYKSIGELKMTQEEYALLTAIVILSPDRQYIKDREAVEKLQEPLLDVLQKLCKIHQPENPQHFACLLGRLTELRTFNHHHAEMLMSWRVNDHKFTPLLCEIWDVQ

For `CC(C)(C)c1nc(C23CCC(CN(C(=O)C45CC(F)(C4)C5)c4cccc(-c5noc(C6(C)CC6)n5)c4)(CC2)CC3)no1` [Example 177, N-((4-(5-(tert-butyl)-1,2,4-oxadiazol-3-yl)bicyclo[2.2.2]octan-1-yl)methyl)-3-fluoro-N-(3-(5-(1-methylcyclopropyl)-1,2,4-oxadiazol-3-yl)phenyl)bicyclo[1.1.1]pentane-1-carboxamide], the EC50 amounted to 33 nM. In other words, the double-digit nanomolar range.

In turn, `COc1cc(-c2cccc(N(CC34CCC(c5nc(C6CCOCC6)no5)(CC3)CC4)C(=O)C34CC(F)(C3)C4)c2)ccn1` [Example 227, 3-Fluoro-N-(3-(2-methoxypyridin-4-yl)phenyl)-N-((4-(3-(tetrahydro-2H-pyran-4-yl)-1,2,4-oxadiazol-5-yl)bicyclo[2.2.2]octan-1-yl)methyl)bicyclo[1.1.1]pentane-1-carboxamide] yielded an EC50 of 377 nM. Against the preceding compound, the EC50 is about 11-fold higher.

Compound `O=C(N(CC12CCC(c3nc(C4CC4)cs3)(CC1)CC2)c1cccc(-c2nc(C3CC3)no2)c1)C12CC(F)(C1)C2` [Example 100, N-(3-(3-cyclopropyl-1,2,4-oxadiazol-5-yl)phenyl)-N-((4-(4-cyclopropylthiazol-2-yl)bicyclo[2.2.2]octan-1-yl)methyl)-3-fluorobicyclo[1.1.1]pentane-1-carboxamide] yielded an EC50 of 164 nM. This EC50 is about 2.3-fold lower than that of the compound before.

With `CC(C)c1nc(-c2cccc(N(CC34CCC(c5nc(C6CC6)no5)(CC3)CC4)C(=O)C34CC(F)(C3)C4)c2)no1` [Example 109, N-((4-(3-cyclopropyl-1,2,4-oxadiazol-5-yl)bicyclo[2.2.2]octan-1-yl)methyl)-3-fluoro-N-(3-(5-isopropyl-1,2,4-oxadiazol-3-yl)phenyl)bicyclo[1.1.1]pentane-1-carboxamide], a half-maximal effect (EC50) was put at 55 nM.

`Cn1nc(-c2cccc(N(CC34CCC(c5nc(C6CC6)no5)(CC3)CC4)C(=O)C3CCC(F)(F)C3)c2)cc1C1CC1` (stereo not drawn) [Example 77, N-((4-(3-cyclopropyl-1,2,4-oxadiazol-5-yl)bicyclo[2.2.2]octan-1-yl)methyl)-N-(3-(5-cyclopropyl-1-methyl-1H-pyrazol-3-yl)phenyl)-3,3-difluorocyclopentane-1-carboxamide] came in with an EC50 of 429 nM. Compared with the last compound, the EC50 is about 7.8-fold higher.

`CC(C)(C)c1noc(C23CCC(CN(C(=O)C45CC(F)(C4)C5)c4cccc(-c5noc(C6CC6)n5)c4)(CC2)CC3)n1` [Example 171, N-((4-(3-(tert-butyl)-1,2,4-oxadiazol-5-yl)bicyclo[2.2.2]octan-1-yl)methyl)-N-(3-(5-cyclopropyl-1,2,4-oxadiazol-3-yl)phenyl)-3-fluorobicyclo[1.1.1]pentane-1-carboxamide] yielded an EC50 of 37.6 nM. Against the preceding compound, the EC50 is about 11-fold lower.

`COc1cc(-c2cccc(N(CC34CCC(c5nc(C6CC6)no5)(CC3)CC4)C(=O)C34CC(F)(C3)C4)c2)ccn1` [Example 229, N-((4-(3-cyclopropyl-1,2,4-oxadiazol-5-yl)bicyclo[2.2.2]octan-1-yl)methyl)-3-fluoro-N-(3-(2-methoxypyridin-4-yl)phenyl)bicyclo[1.1.1]pentane-1-carboxamide] came in with an EC50 of 154 nM. Compared with the last compound, the EC50 is about 4.1-fold higher.

As to `CC(F)(F)c1nc(-c2cccc(N(CC34CCC(c5nc(C6CC6)no5)(CC3)CC4)C(=O)C34CC(F)(C3)C4)c2)no1` [Example 112, N-((4-(3-cyclopropyl-1,2,4-oxadiazol-5-yl)bicyclo[2.2.2]octan-1-yl)methyl)-N-(3-(5-(1,1-difluoroethyl)-1,2,4-oxadiazol-3-yl)phenyl)-3-fluorobicyclo[1.1.1]pentane-1-carboxamide], the EC50 amounted to 68 nM.

Compound `CC1(c2nc(C34CCC(CN(C(=O)C56CC(F)(C5)C6)c5cccc(-c6nc(C7CC7)no6)c5)(CC3)CC4)no2)CC1` [Example 115, N-(3-(3-cyclopropyl-1,2,4-oxadiazol-5-yl)phenyl)-3-fluoro-N-((4-(5-(1-methylcyclopropyl)-1,2,4-oxadiazol-3-yl)bicyclo[2.2.2]octan-1-yl)methyl) bicyclo[1.1.1]pentane-1-carboxamide] came in with an EC50 of 35 nM. Against the preceding compound, the EC50 is about 1.9-fold lower.

Values taken from US11254663B2 (BRISTOL-MYERS SQUIBB COMPANY, priority 2019, dated 2022).
